Series [1] is described as follows: Steady-state AUC0-24,ss, (AUC0-24,ss)/dose, half-life and time to steady state: Compound I versus palbociclib, ribociclib, abemaciclib. Type of series: in vivo, human. Conditions: for (Mean AUC0-24,ss)/Dose (mg) / Cmax / AUC(0-t): Day 29; for AUC(0-t): read-out: Mean AUC0-24,ss. An excerpt: The time to reach steady state was defined as five half-lives (97% steady state achieved). […] The AUC data are presented as the arithmetic mean. […] The AUC data are presented as the geometric mean. The steady-state AUC0-24 for various BID doses of abemaciclib provided in Table 89 was obtained from the above cited prior published studies. The AUC data are presented as the geometric mean.

Series [2] can be described thus: Apparent volume of distribution (Vd/F). Type of series: in vivo. As to conditions: human, plasma, oral; 200 mg QD of compound II. As for the experimental part:
“Vd/F” (Liters) as used herein means the theoretical volume that would be necessary to contain the total amount of an administered drug at the same concentration that it is observed in the blood plasma. It is generally defined as the distribution of a medication between plasma and the rest of the body after oral or parenteral dosing. “Vd/F” as used herein is calculated by using the terminal elimination rate constant, which is derived mathematically from the concentration vs time curve to extrapolate a value of plasma concentration at time zero. Volume of distribution for oral drugs is normally expressed as Vd/F or Vz/F. The skilled artisan is familiar with calculating Vd/F or Vz/F.
The apparent volume of distribution (Vd/F) was calculated from the terminal rate constant (ke) derived from the plasma concentration-versus-time data provided for Compound I in Example 1 when dosed with 200 mg QD of Form B of Compound II.

Series [3] concerns BT474 tumor. The series is described as follows: Murine HER2+ ER+ CBX model, tumor growth and survival. It is filed as in vivo. As to conditions: BT474 tumor-containing mice; Compound I 50 mg/kg by mouth once a day for 56 days. As for the experimental part: Mice containing a BT474 tumor were treated with vehicle, Compound I (50 mg/kg by mouth once a day for 56 days), lapatinib+trastuzumab, or Compound I+lapatinib+trastuzumab.

For series [4], the system named is ME-016 tumor. The series is described as follows: Murine BRAFmut melanoma PDX model, tumor growth and survival. It is filed as in vivo. Conditions: ME-016 tumor-containing mice; Compound I 100 mg/kg, dabrafenib 25 mg/kg, trametinib 1 mg/kg. As for the experimental part: Mice containing a ME-016 tumor were treated with vehicle, Compound I (100 mg/kg), dabrafenib (25 mg/kg), trametinib (1 mg/kg), Compound I+dabrafenib, Compound I+trametinib, dabrafenib+trametinib, and Compound I+dabrafenib+trametinib.

Series [5] deals with tumor. As to conditions: mice, single dosage of 100 mg/kg; cited from earlier work.
Series [6] can be described thus: TG and TG-IR analysis of Form B. Type of series: physicochemical. The protocol:
The TG analyses were performed using a TA Instrument Q5000 thermogravimetric analyzer. Temperature calibration was performed using nickel and Alumel. The sample was placed in a platinum pan and inserted into the TG furnace. The furnace was heated under a nitrogen purge to 350° C. at a rate of 10° C./min.
Thermogravimetric infrared (TG-IR) analysis was performed on a TA Instruments Q5000 IR thermogravimetric (TG) analyzer interfaced to a Magna-IR 560@ Fourier transform infrared (FT-IR) spectrophotometer (Thermo Nicolet) equipped with an Ever-Glo mid/far IR source, a potassium bromide (KBr) beamsplitter, and a mercury cadmium telluride (MCT-A) detector. The FT-IR wavelength verification was performed using polystyrene, and the TG calibration standards were nickel and Alumel™. The sample was placed in a platinum sample pan and the pan was inserted into the TG furnace. The TG instrument was started first, immediately followed by the FT-IR instrument. The TG instrument was operated under a flow of helium at 90 and 10 cc/minute for the purge and balance, respectively. The furnace was heated under helium at a rate of 20° C./minute to a final temperature of approximately 140° C. IR spectra were collected approximately every 32 seconds for approximately 7.5 minutes. Each IR spectrum represents 32 co-added scans collected at a spectral resolution of 4 cm-1. Volatiles were identified from a search of the High Resolution Nicolet Vapor Phase spectral library.
A TG-IR experiment was carried out on pure Form B (Sample 11 from the small-scale slurry experiments) at […] in an effort to investigate the stability of Form B at elevated temperature by monitoring potential release of hydrogen chloride.

The nature of series [7]: Six- and twelve-month stability study of Form B at 25° C./60% RH and 40° C./75% RH. It is filed as physicochemical. As for the experimental part:
Form B was stored at 25° C./60% RH for twelve months and at 40° C./75% RH for six months.

Setting [8] is: 200 mg QD of Form B of Compound II, five half-lives.
Where [9] appears, read: human, plasma, oral, 200 mg QD of Form B of Compound II.
[10] abbreviates: human, plasma, oral, 300 mg QD of Form B of Compound II.
Where [11] appears, read: human, plasma, oral, 400 mg QD of Form B of Compound II.
The mark [12] stands for this setting: human, plasma, oral, 500 mg QD of Form B of Compound II.
[13] abbreviates: human, plasma, oral, 650 mg QD of Form B of Compound II.

Molecules are shown by their SMILES. Where two headings read alike, the source gives them in different places.

What is called half-life is the time in which the quantity being followed falls by half. Usually Cmax stands for the peak of the concentration-time curve. Broadly, the Vd/F is the volume of distribution divided by bioavailability. `CC(C)N1CCN(c2ccc(Nc3ncc4cc5n(c4n3)C3(CCCCC3)CNC5=O)nc2)CC1` [Compound I, 2′-((5-(4-isopropylpiperazin-1-yl)pyridin-2-yl)amino)-7′,8′-dihydro-6′H-spiro[cyclohexane-1,9′-pyrazino[1′,2′:1,5]pyrrolo[2,3-d]pyrimidin]-6′-one]: the (Mean AUC0-24,ss)/Dose (mg) in series [1] (200 mg QD of Form B of Compound II) was found to be 1.15 ng·h/mL/mg; in series [1] (300 mg QD of Form B of Compound II), 1.97 ng·h/mL/mg; in series [1] (400 mg QD of Form B of Compound II), 0.695 ng·h/mL/mg; in series [1] (500 mg QD of Form B of Compound II), 1.21 ng·h/mL/mg; in series [1] (650 mg QD of Form B of Compound II), 1.47 ng·h/mL/mg. Also, the “Time to Steady State” value in series [1] (setting [8]) is recorded as 3.2 days. For the same molecule, the “Time to Steady-State” value in series [1] (setting [8]) came out at 76 h. For the same molecule, in series [1] (Compound I, Day 29, QD dosing of Form B of Compound II), the “(AUC0-24,ss)/Dose” value is recorded as at most 5. This molecule also showed a half-life in series [1] (setting [9]) of 912 min. In addition, the Cmax was found to be 20.4 ng/mL in series [1] (setting [9]); 47 ng/mL in series [1] (setting [10]); 19 ng/mL in series [1] (setting [11]); 43.2 ng/mL in series [1] (setting [12]); 66 ng/mL in series [1] (setting [13]). For the same molecule, the AUC(0-t) is 229 ng·h/mL in series [1] (setting [9]); 592 ng·h/mL in series [1] (setting [10]); 278 ng·h/mL in series [1] (setting [11]); 607 ng·h/mL in series [1] (setting [12]); 956 ng·h/mL in series [1] (setting [13]). Besides, the Vd/F in series [2] amounted to 15200 L. Further, the “Median OS” value worked out at 25 days in series [3] and 42.5 days in series [4]. The distribution to tumor result in series [5] is recorded as “concentrates in the tumor”.

For the molecule `CC(C)N1CCN(c2ccc(Nc3ncc4cc5n(c4n3)C3(CCCCC3)CNC5=O)nc2)CC1` [Compound II, 2′-((5-(4-isopropylpiperazin-1-yl)pyridin-2-yl)amino)-7′,8′-dihydro-6′H-spiro[cyclohexane-1,9′-pyrazino[1′,2′:1,5]pyrrolo[2,3-d]pyrimidin]-6′-one], the TGA weight loss was determined as 10% weight loss at 26- in series [6] (at 26-120° C., 125 mg/mL Slurry, 30° C., 43 h VF, washed, Air-dried for 3.5 h); 9.9% weight loss at 26- in series [6] (at 26-120° C., Vacuum drying, 22° C., 0.5 h, 15 in Hg, 22° C. 1.5 h, 27-28 in Hg); 7.5% weight loss at 31- in series [6] (at 31-120° C., Vacuum drying, 22° C., 2.0 h, 27 in Hg).

With `CC(C)N1CCN(c2ccc(Nc3ncc4cc5n(c4n3)C3(CCCCC3)CNC5=O)nc2)CC1` [Form B], the “long-term stability, time stable” value in series [7] (25° C. and 60% relative humidity) was “at least 1 year”. The Appearance result is on record as “Yellow” in series [7] (25° C./60% RH, 0M); “Yellow” in series [7] (25° C./60% RH, 3M); “Yellow” in series [7] (25° C./60% RH, 6M); “Yellow” in series [7] (25° C./60% RH, 9M); “Yellow” in series [7] (25° C./60% RH, 12M); “Yellow solid” in series [7] (40° C./75% RH, 0M). Also, the Appearance entry is “Yellow solid” in series [7] (40° C./75% RH, 1M); “Yellow solid” in series [7] (40° C./75% RH, 3M); “Yellow solid” in series [7] (40° C./75% RH, 6M). In addition, the “HPLC Purity” value in series [7] (25° C./60% RH, 0M) was 99.5%; in series [7] (25° C./60% RH, 3M), 99.5%; in series [7] (25° C./60% RH, 6M), 99.5%; in series [7] (25° C./60% RH, 9M) it was 99.6%; in series [7] (25° C./60% RH, 12M), 99.5%; in series [7] (40° C./75% RH, 0M), 99.5%. For the same molecule, the “HPLC Purity” value in series [7] (40° C./75% RH, 1M) was found to be 99.5%; in series [7] (40° C./75% RH, 3M), 99.5%; in series [7] (40° C./75% RH, 6M), 99.5%. For the same molecule, the “Moisture (%)” value is recorded as 4.9% in series [7] (25° C./60% RH, 0M); 4.07% in series [7] (25° C./60% RH, 3M); 7.53% in series [7] (25° C./60% RH, 6M); 7.29% in series [7] (25° C./60% RH, 9M); 7.48% in series [7] (25° C./60% RH, 12M); 4.9% in series [7] (40° C./75% RH, 0M). In addition, the “Moisture (%)” value in series [7] (40° C./75% RH, 1M) amounted to 2.75%; in series [7] (40° C./75% RH, 3M), 7.47%; in series [7] (40° C./75% RH, 6M), 7.53%. For the same molecule, the XRPD result in series [7] (25° C./60% RH, 0M) is on record as “Form B”; in series [7] (25° C./60% RH, 12M) it was “Form B”; in series [7] (40° C./75% RH, 0M) it was “Form B”; in series [7] (40° C./75% RH, 3M) it was “Form B”; in series [7] (40° C./75% RH, 6M), “Form B”. The “XRPD spectrum at the longest time point studied” value in series [7] (25° C./60% RH, twelve months) is on record as “conformed to the reference spectrum”; in series [7] (40° C./75% RH, six months), “conformed to the reference spectrum”. Further, the “purity at the longest time point studied” value turned out to be 99.5% in series [7] (25° C./60% RH, twelve months) and 99.5% in series [7] (40° C./75% RH, six months).

Values taken from patent US11357779B2 (G1 Therapeutics, Inc., priority 2018, dated 2022).
